Here are results for ten compounds from US20110020460A1, “GPR 119 MODULATORS” (Pfizer Inc., priority 2009, published 2011).

Values joined by “and” are separate entries in the source; they are usually repeats but may differ in a detail not shown here. Equal entries are not always repeated.

The target in test [1] is T1, human GPR119 (Homo sapiens, UniProt Q8TDV5).
T1 construct: host or cells: HEK293-CRE-beta-lactamase
T1 sequence (Q8TDV5 1-335): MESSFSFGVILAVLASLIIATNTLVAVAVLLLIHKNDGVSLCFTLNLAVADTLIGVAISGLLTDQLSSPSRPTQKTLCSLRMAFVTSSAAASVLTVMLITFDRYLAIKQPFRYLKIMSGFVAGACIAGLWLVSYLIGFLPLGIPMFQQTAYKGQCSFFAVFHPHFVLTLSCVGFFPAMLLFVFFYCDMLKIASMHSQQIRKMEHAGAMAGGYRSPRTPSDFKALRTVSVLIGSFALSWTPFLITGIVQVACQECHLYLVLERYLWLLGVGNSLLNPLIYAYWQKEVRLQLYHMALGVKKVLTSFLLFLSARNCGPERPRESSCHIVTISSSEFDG
The test is described as follows: GPR119 radioligand binding assay ([3H]-Compound A or [3H]-Compound B, HEK 293FT membranes). Conditions: Ki from IC50 by Cheng-Prusoff; one value per run; read-out: Human Binding Ki. On the procedure:
Cells were harvested via centrifugation (3,000×g, 10 minutes), washed once on DPBS (minus Ca++/Mg++), resuspended in 0.25M sucrose, 25 mM HEPES, 0.5 mM EDTA, pH 7.4 and frozen at −80 degrees Celsius.
The frozen cells were thawed on ice and centrifuged at 700×g (1400 rpm) for 10 minutes at 4 degrees Celsius. The cell pellet was resuspended in 20 mL phosphate-buffered saline, and centrifuged at 1400 rpm for 10 minutes. […] Cells were then lysed with 15 gentle strokes of a tight-fitting glass Dounce homogenizer. The homogenate was centrifuged at 1000×g (2200 rpm) for 10 minutes at 4 degrees Celsius. The supernatant was transferred into fresh centrifuge tubes on ice. The cell pellet was resuspended in homogenization buffer, and centrifuged again at 1000×g (2200 rpm) for 10 minutes at 4 degrees Celsius after which the supernatant was removed and the pellet resuspended in homogenization buffer. […] The solution was then centrifuged at 25,000×g (15000 rpm) for 20 minutes at 4 degrees Celsius, the supernatant was discarded, and the pellet was resuspended in fresh homogenization buffer (minus Benzonase and MgCl2). After repeating the 25,000×g centrifugation step, the final membrane pellet was resuspended in homogenization buffer and frozen at −80 degrees Celsius.
2 microL of each dilution was added to appropriate wells of a 96-well plate (each concentration in triplicate).
Membranes expressing GPR119 were thawed and diluted to a final concentration of 20 μg/100 microL per well in Binding Buffer, and 100 microL of diluted membranes were added to each well of 96-well plate.
The plate was incubated for 60 minutes w/shaking at room temperature (approximately 25 degrees Celsius). […] Filters were then washed six times using washing buffer (50 mM Tris-HCl, pH 7.5 kept at 4 degrees Celsius). The filter plates were then air-dyed at room temperature overnight.
IC50 determinations were made from competition curves, analyzed with a proprietary curve fitting program (SIGHTS) and a 4-parameter logistic dose response equation. Ki values were calculated from IC50 values, using the Cheng-Prusoff equation.

For test [2], the target named is T1, human GPR119. Kind of test: cAMP HTRF functional assay (hGPR119 HEK-CRE beta-lactamase cells). It is filed as cell-based. Conditions: for Emax: read-out: Intrinsic Activity* (cAMP). On the procedure:
GPR119 agonist activity was also determined with a cell-based assay utilizing an HTRF (Homogeneous Time-Resolved Fluorescence) cAMP detection kit (cAMP dynamic 2 Assay Kit; Cis Bio cat #62AM4PEC) that measures cAMP levels in the cell. The method is a competitive immunoassay between native cAMP produced by the cells and the cAMP labeled with the dye d2. The tracer binding is visualized by a Mab anti-cAMP labeled with Cryptate. The specific signal (i.e. energy transfer) is inversely proportional to the concentration of cAMP in either standard or sample.
Following 30 minutes incubation at room temperature, 5 microL of labeled d2 cAMP and 5 microL of anti-cAMP antibody (both diluted 1:20 in cell lysis buffer; as described in the manufacturers assay protocol) were added to each well of the assay plate. […] Raw data were converted to nM cAMP by interpolation from a cAMP standard curve (as described in the manufacturer's assay protocol) and EC50 determinations were made from an agonist-response curves analyzed with a curve fitting program using a 4-parameter logistic dose response equation.
For orientation: TR-FRET usually uses a lanthanide donor and a delayed reading to cut background.

Test [3] concerns the target T1, human GPR119. Kind of test: beta-lactamase reporter functional assay (hGPR119 HEK293-CRE beta-lactamase cells). It is filed as cell-based. The note with it: for EC50: read-out: Human B-lactamase Functional EC50; for Emax: read-out: Intrinsic Activity* (B-lactamase). How it is done:
The assay for GPR119 agonists utilizes a cell-based (hGPR119 HEK293-CRE beta-lactamase) reporter construct where agonist activation of human GPR119 is coupled to beta-lactamase production via a cyclic AMP response element (CRE). GPR119 activity is then measured utilizing a FRET-enabled beta-lactamase substrate, CCF4-AM (Live Blazer FRET-B/G Loading kit, Invitrogen cat #K1027). […] After 4 hours the plating medium was removed and replaced with 40 microL of assay medium (Assay medium is plating medium without potassium clavulanate and HIFBS). Varying concentrations of each compound to be tested was then added in a volume of 10 microL (final DMSO≦0.5%) and the cells were incubated for 16 hours at 37 degrees Celsius in a humidified environment containing 5% carbon dioxide. Plates were removed from the incubator and allowed to equilibrate to room temperature for approximately 15 minutes. 10 microL of 6×CCF4/AM working dye solution (prepared according to instructions in the Live Blazer FRET-B/G Loading kit, Invitrogen cat #K1027) was added per well and incubated at room temperature for 2 hours in the dark. Fluorescence was measured on an EnVision fluorimetric plate reader, excitation 405 nm, emission 460 nm/535 nm. EC50 determinations were made from agonist-response curves analyzed with a curve fitting program using a 4-parameter logistic dose-response equation.

The mark [4] stands for this setting: hGPR119 HEK-CRE beta-lactamase cells, HTRF cAMP, one value per run.
The mark [5] stands for this setting: percent of maximal activity relative to standard GPR119 agonist (WO2005121121) at 10 μM, one value per run.
Setting [6] is: hGPR119 HEK293-CRE beta-lactamase cells, one value per run.
[7] abbreviates: percent of maximal activity relative to standard GPR119 agonist (WO2005121121) at 10 microM, one value per run.
Setting [8] is: **curve was extrapolated to 100% to calculate an EC50.

In the case of `CC(C)OC(=O)N1CCC(n2ncc(CNc3ccc(S(C)(=O)=O)cc3F)c2C#N)CC1` [Example 10, Isopropyl 4-[5-cyano-4-({[2-fluoro-4-(methylsulfonyl)phenyl]amino}methyl)-1H-pyrazol-1-yl]piperidine-1-carboxylate], at human GPR119 [1], the Ki was 28 nM and 30 nM. The concentration giving a half-maximal response (EC50) at human GPR119 [2] (setting [4]) is 87 nM and 98 nM. Moreover, on human GPR119 [2] (setting [5]), the “Intrinsic Activity* (cAMP)” value was 57% and the Emax worked out at 62%. The EC50 on human GPR119 [3] (setting [6]) was 34 nM and 38 nM. At human GPR119 [3] (setting [7]), the “Intrinsic Activity* (B-lactamase)” value came out at 94% and the Emax is 100%.
With `CC(C)OC(=O)N1CCC(n2ncc(COc3ccc(F)cc3F)c2C#N)CC1` [Example 11, Isopropyl 4-{5-cyano-4-[(2,4-difluorophenoxy)methyl]-1H-pyrazol-1-yl}piperidine-1-carboxylate], the Ki at human GPR119 [1] was found to be 530 nM. The concentration for a half-maximal effect (EC50) on human GPR119 [2] (setting [4]) was 163 nM and 98 nM and 154 nM; at human GPR119 [3] (setting [6]), 782 nM. Besides, the “Intrinsic Activity* (cAMP)” value on human GPR119 [2] (setting [5]) was 74% and 62%. The results for the Emax at human GPR119 [2] (setting [5]) and on human GPR119 [3] (setting [7]) were 61% and 98%, respectively.
For the compound `Cc1ccccc1OCc1cnn(C2CCN(C(=O)OC(C)C)CC2)c1C#N` [Example 12, Isopropyl 4-{5-cyano-4-[(2-methylphenoxy)methyl]-1H-pyrazol-1-yl}piperidine-1-carboxylate], the inhibitory constant (Ki) on human GPR119 [1] is 1700 nM. Also, the values for the EC50 on human GPR119 [2] (setting [4]) and on human GPR119 [3] (setting [8]) were above 10000 nM and 5200 nM, respectively. Also, the Emax is 31% at human GPR119 [2] (setting [5]) and 100% at human GPR119 [3] (setting [8]).
As to `CC(C)OC(=O)N1CCC(n2ncc(COc3ccc(-c4nnn[nH]4)cc3F)c2C#N)CC1` [Example 19, Isopropyl 4-(5-cyano-4-((2-fluoro-4-(1H-tetrazol-5-yl)phenoxy)methyl)-1H-pyrazol-1-yl)piperidine-1-carboxylate and Isopropyl 4-(5-cyano-4-((2-fluoro-4-(2H-tetrazol-5-yl)phenoxy)methyl)-1H-pyrazol-1-yl)piperidine-1-carboxylate], the inhibitory constant (Ki) at human GPR119 [1] was above 6100 nM. Besides, the EC50 on human GPR119 [2] (setting [8]) is 4480 nM; at human GPR119 [2] (setting [4]) it was 4550 nM; at human GPR119 [3] (setting [8]) it was 4000 nM and 4810 nM. In addition, the Emax at human GPR119 [2] (setting [8]) was 100%; on human GPR119 [2] (setting [5]), 99%; on human GPR119 [3] (setting [8]), 100%.
Take `CC(C)OC(=O)N1CCC(n2ncc(COc3ccc(-c4nnnn4C)cc3F)c2C#N)CC1` [Example 20, Isopropyl 4-(5-cyano-4-((2-fluoro-4-(1-methyl-1H-tetrazol-5-yl)phenoxy)methyl)-1H-pyrazol-1-yl)piperidine-1-carboxylate]: the inhibition constant (Ki) at human GPR119 [1] is 41 nM and 144 nM. Besides, the concentration giving a half-maximal response (EC50) is 59 nM and 90 nM on human GPR119 [2] (setting [4]); 131 nM on human GPR119 [3] (setting [8]); 61 nM at human GPR119 [3] (setting [6]). In addition, the figures for the Emax at human GPR119 [2] (setting [5]), at human GPR119 [3] (setting [8]) and at human GPR119 [3] (setting [7]) were 123%, 100% and 107%, respectively.
In the case of `CC(C)OC(=O)N1CCC(n2ncc(COc3ccc(-c4nnn(C)n4)cc3F)c2C#N)CC1` [Example 21, Isopropyl 4-(5-cyano-4-((2-fluoro-4-(2-methyl-2H-tetrazol-5-yl)phenoxy)methyl)-1H-pyrazol-1-yl)piperidine-1-carboxylate], the Ki at human GPR119 [1] is 58 nM and 128 nM. Also, the EC50 at human GPR119 [2] (setting [4]) is 44 nM and 32 nM and 57 nM; at human GPR119 [3] (setting [6]) it was 688 nM and 201 nM. In addition, the “Intrinsic Activity* (cAMP)” value on human GPR119 [2] (setting [5]) was 31% and 34%. Besides, the Emax worked out at 33% at human GPR119 [2] (setting [5]) and 100% at human GPR119 [3] (setting [7]). The “Intrinsic Activity* (B-lactamase)” value at human GPR119 [3] (setting [7]) was 96%.
Turning to `CC(C)OC(=O)N1CCC(n2ncc(C(C)Oc3ccc(S(C)(=O)=O)cc3F)c2C#N)CC1` (stereo not shown) [Example 27, Isopropyl 4-(5-cyano-4-{1-[2-fluoro-4-(methylsulfonyl)phenoxy]ethyl}-1H-pyrazol-1-yl)piperidine-1-carboxylate], the Ki at human GPR119 [1] is 1640 nM and 528 nM. Also, the concentration for a half-maximal effect (EC50) on human GPR119 [2] (setting [4]) was 394 nM; at human GPR119 [3] (setting [6]), 1870 nM and 3400 nM. The Emax on human GPR119 [2] (setting [5]) turned out to be 27%; on human GPR119 [3] (setting [7]) it was 102%. The “Intrinsic Activity* (B-lactamase)” value at human GPR119 [3] (setting [7]) was 100%.
On to `Cc1ncccc1OC(C)c1cnn(C2CCN(C(=O)OC(C)C)CC2)c1C#N` (stereo not shown) [Example 28, Isopropyl 4-(5-cyano-4-{1-[(2-methylpyridin-3-yl)oxy]ethyl}-1H-pyrazol-1-yl)piperidine-1-carboxylate], for which, on human GPR119 [1], the Ki is above 6100 nM. For the same compound, the concentration giving a half-maximal response (EC50) on human GPR119 [2] (setting [4]) was above 10000 nM; at human GPR119 [3] (setting [6]) it was 5 nM and 3 nM. Moreover, on human GPR119 [3] (percent of maximal activity relative to standard GPR119 agonist (WO2005121121) at 10 microM, one value per run, listed as Exmaple 28), the “Intrinsic Activity* (B-lactamase)” value worked out at 22%. Besides, on human GPR119 [3] (setting [7]), the Emax is 27%.
As to `CC(C)OC(=O)N1CCC(n2ncc(CC(C)c3ccc(S(C)(=O)=O)cc3F)c2C#N)CC1` (stereo not shown) [Example 29, Isopropyl 4-(5-cyano-4-{2-[2-fluoro-4-(methylsulfonyl)phenyl]propyl}-1H-pyrazol-1-yl)piperidine-1-carboxylate], at human GPR119 [1], the Ki was 1550 nM and 3380 nM. Moreover, at human GPR119 [2] (setting [5]), the “Intrinsic Activity* (cAMP)” value is listed as 33% and the Emax worked out at 27%. Besides, at human GPR119 [3] (setting [8]), the 50% effective concentration (EC50) was 3010 nM and the Emax is 100%.
Take `Cc1ncccc1OCc1cnn(C2CCN(C(=O)OC3(C)CC3)CC2)c1C#N` [Example 30, 1-Methylcyclopropyl 4-(5-cyano-4-{[(2-methylpyridin-3-yl)oxy]methyl}-1H-pyrazol-1-yl)piperidine-1-carboxylate]: at human GPR119 [1], the inhibition constant Ki stood at 2020 nM. The EC50 on human GPR119 [2] (setting [4]) is 256 nM and 245 nM; at human GPR119 [3] (setting [6]) it was 136 nM and 166 nM. Besides, the “Intrinsic Activity* (cAMP)” value on human GPR119 [2] (setting [5]) was determined as 60%. Besides, the Emax on human GPR119 [2] (setting [5]) worked out at 68%. Besides, the “Intrinsic Activity* (B-lactamase)” value at human GPR119 [3] (setting [7]) was 113% and 76%.

One may read the Ki as a dissociation constant, usually derived from enzyme kinetics or from competition with a known ligand. In general, EC50 refers to the concentration needed to bring the measured effect to its halfway point.
